Measured values as given in US20080200475A1 (Pfizer Inc., priority 2005, published 2008).

Molecular target: T1, Human P2Y12 (Homo sapiens, UniProt Q9H244)
T1 construct: expressed in transfected cells; host or cells: HEK cells (membrane preparation)
Assay: [^33P]-2MeS-ADP Binding to Recombinant Human P2Y12 Membranes (Assay 3)
Details: for inhibition at 10 µM: highest concentration tested 10 μM; for IC50 / Ki: membranes of HEK cells transfected with P2Y12, competition with ^33P 2MeS-ADP, multiple lines = multiple runs
Protocol: 3. Human P2Y12 Recombinant Cell Membrane Binding Assay with ^33P 2MeS-ADP.
The ability of a test compound to bind to the P2Y12 receptor was evaluated in a recombinant cell membrane binding assay. In this competitive binding assay, the test compound competed against a radiolabelled agonist for binding to the P2Y12 receptor, expressed on the cell membrane. Inhibition of binding of the labeled material was measured and correlated to the amount and potency of the test compound. Data from this assay are presented in Table F. This binding assay is a modification of the procedure in Takasaki, J. et. al, Mol. Pharmacol., 2001, Vol. 60, pg. 432.
HEK cells were transfected with the pDONR201P2Y12 vector and cultured in MEM with GlutaMAX I, Earle's salts, 25 mM HEPES (Gibco #42360-032) containing 10% dialyzed FBS (Gibco #26400-044), 100 μM nonessential amino acids (Gibco #11140-050), 1 mM sodium pyruvate (Gibco #11360-070), 0.05% geneticin (Gibco #10131-027), 3 μg/mL blasticidin (Fluka brand from Sigma #15205), and 0.5 μg/mL puromycin (Sigma #P-8833).
Confluent cells were washed once with cold DPBS (Gibco #14190-136). Fresh DPBS was added and the cells were scraped and centrifuged at 500×g for 5 minutes at 4° C. The cell pellets were resuspended in TEE buffer (25 mM Tris, 5 mM EDTA, 5 mM EGTA) containing 1 protease inhibitor cocktail tablet (Roche #1 873 580) per 50 mL (called TEE+Complete) and can be flash frozen at this point.
In one embodiment, frozen cell pellets were used to prepare the membranes. In that embodiment, the frozen cell pellets were thawed on ice. In another embodiment, cell pellets may be used without flash freezing before moving on to the next step.
Cell pellets were resuspended in TEE buffer+Complete and homogenized in a glass dounce for 12 strokes. The cell suspension was centrifuged at 500×g for 5 minutes at 4° C. The supernatant was saved and centrifuged at 20,000×g for 20 minutes at 4° C. This supernatant was discarded and the cell pellet resuspended in TEE buffer+Complete and homogenized in a glass dounce for 12 strokes. This suspension was centrifuged at 20,000×g for 20 minutes at 4° C. and the supernatant discarded. The pellet was resuspended in assay buffer (50 mM Tris, 100 mM NaCl, 1 mM EDTA) containing one protease inhibitor cocktail tablet per 50 mL, and can be flash frozen as 1 mL aliquots at this point.
[…] A 1 mM DMSO intermediate stock was made in a dilution plate and from this the seven dilutions were made to 5× the final concentration in assay buffer containing 0.02% BSA.
To a polypropylene assay plate (Costar #3365) the following were added: a) 30 μL of assay buffer containing one protease inhibitor cocktail tablet per 50 mL; b) 30 μL of 1 nM ^33P 2MeS-ADP made in assay buffer containing 0.02% BSA and 12.5 mg/mL ascorbic acid; 30 μL of cold 1.5 μM 2MeS-ADP for the positive control wells, or assay buffer containing 0.02% BSA and 12.5 mg/mL ascorbic acid for the negative control wells, or 5× drug dilution; and 60 μL of 1 ug/well membranes.
The plates were incubated at room temperature for 1 hour. The reaction was stopped using a cell harvester to transfer the reaction mixture onto GF/B UniFilter plates (Perkin Elmer #6005177), and washed three times with wash buffer (50 mM Tris), filtering between each wash. The filter plates were dried for approximately 20 minutes in an oven at 50° C. Back seals were adhered to the filter plates and 25 uL of Microscint 20 scintillation fluid (Perkin Elmer #6013621) were added. The filter plates were sealed, shaken for 30 minutes, and counted on a Top Count. Data were analyzed using a four-parameter curve fit with a fixed minimum and maximum experimentally defined as the average positive and negative controls on each plate, and with a hill slope equal to one. […]

T1 sequence (Q9H244 whole entry): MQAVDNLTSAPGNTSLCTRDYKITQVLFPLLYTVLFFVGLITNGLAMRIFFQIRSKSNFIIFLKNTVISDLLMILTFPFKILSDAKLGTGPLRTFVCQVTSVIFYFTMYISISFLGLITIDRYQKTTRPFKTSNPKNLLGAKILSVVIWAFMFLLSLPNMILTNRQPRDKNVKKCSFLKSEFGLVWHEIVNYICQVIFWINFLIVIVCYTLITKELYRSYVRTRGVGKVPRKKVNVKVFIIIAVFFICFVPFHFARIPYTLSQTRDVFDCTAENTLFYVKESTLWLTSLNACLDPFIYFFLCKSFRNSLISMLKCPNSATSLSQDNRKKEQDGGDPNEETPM

| inhibition at 10 µM | IC50 | Ki | inhibition at 1 µM (highest concentration tested 1 μM) | SMILES |
| --- | --- | --- | --- | --- |
| 91% | 0.159 µM | 0.093 µM |  | CCc1cc2c(N3CCN(C(=O)c4ccc(-c5ccccc5)cc4)CC3)nc(NC(C)=O)nc2s1 [Example 25, N-{4-[4-(Biphenyl-4-carbonyl)piperazin-1-yl]-6-ethylthieno[2,3-d]pyrimidin-2-yl}acetamide] |
| 92.7% | 0.0381 µM | 0.021 µM |  | CCc1cc2c(N3CCN(C(=O)c4ccc(-c5ccccc5)cc4)CC3)nc(NC(=O)CCNC(=O)OCc3ccccc3)nc2s1 [Example 28, Benzyl(2-{4-[4-(biphenyl-4-carbonyl)piperazin-1-yl]-6-ethylthieno[2,3-d]pyrimidin-2-ylcarbamoyl}ethyl)carbamate] |
|  | 0.0493 µM | 0.024 µM | 84.5% | CCc1cc2c(N3CCN(C(=O)c4ccc(-c5ccccc5)cc4)CC3)nc(NC(=O)CO)nc2s1 [Example 37, N-{4-[4-(Biphenyl-4-carbonyl)piperazin-1-yl]-6-ethylthieno[2,3-d]pyrimidin-2-yl}-b-hydroxyacetamide] |
| 80.8% | 0.244 µM | 0.14 µM |  | C=C(C)C(=O)OCCNC(=O)Nc1nc(N2CCN(C(=O)c3ccc(-c4ccccc4)cc3)CC2)c2cc(CC)sc2n1 [Example 16, 2-{[({4-[4-(1,1′-Biphenyl-4-ylcarbonyl)piperazin-1-yl]-6-ethylthieno[2,3-d]pyrimidin-2-yl}amino)carbonyl]amino}ethyl 2-methylacrylate] |
